# Measured values from paper PMC8688955 (Frontiers in Pharmacology, 2021).
# How the values were obtained:
# CP-AMPARs = test: Whole-cell patch-clamp of kainate-induced currents in isolated striatal giant interneurons; type: cell-based, Wistar rat; conditions: for % block: representative recording, Figure 1B; for % inhibition: 200 µM phenytoin, n = 5
# Protocol: All experimental procedures were approved by the Animal Care and Use Committee of the I.M. Sechenov Institute of Evolutionary Physiology and Biochemistry of the Russian Academy of Sciences. Wistar rats (13–19 days old) were anesthetized with sevoflurane and then decapitated. Maximum effort was made to minimize the number of animals used. Brains were removed quickly and cooled to 2–4°C in an ice bath. […] Single neurons were freed from slices by vibrodissociation ([Vorobjev, 1991]). The antagonism of CP-AMPARs was studied on striatal giant interneurons ([Bernard et al., 1997]; [Gotz et al., 1997]), which were identified by their shape and size. […] The antagonism of CI-AMPARs was studied on pyramidal neurons from the CA1 area of the hippocampus.
# (§1) Series resistance of about 20 MΩ was compensated by 70–80% and monitored during experiments. Currents were recorded using an EPC-8 amplifier (HEKA Electronics, Lambrecht, Germany), filtered at 5 kHz, sampled, and stored on a personal computer. Drugs were applied using the RSC-200 perfusion system (BioLogic Science Instruments, Claix, France) under computer control. The solution exchange time in the whole-cell mode was 50–60 ms. The extracellular solution contained (in mM) NaCl 143, KCl 5, MgCl2 2.0, CaCl2 2.5, D-glucose 18, and HEPES 10 (pH was adjusted to 7.3 with HCl). The pipette solution contained (in mM) CsF 100, CsCl 40, NaCl 5, CaCl2 0.5, EGTA 5, and HEPES 10 (pH was adjusted to 7.2 with CsOH). Experiments were performed at room temperature (22–24°C). […] Lamotrigine, topiramate, levetiracetam, felbamate, carbamazepine, tiagabin, vigabatrin, zonisamide, and gabapentin were purchased from Tocris Bioscience (Bristol, United Kingdom). Perampanel was from MedChemExpress (Stockholm, Sweden). Kinetics of transient processes of more than 20-ms duration was approximated by exponential functions. Experiments were performed at −80 mV holding voltage. All experimental data are presented as mean ± SD estimated from at least four experiments. Significance of the effects was tested with paired t test. Differences were considered significant at p < 0.05. 3D structures of compounds were calculated by the ZMM software (zmmsoft.ca).
# [1] = Solubility in the extracellular solution; type: physicochemical; conditions: concentrations above 500 µM could not be tested
# Protocol: as §1, with “The whole-cell patch-clamp technique was used for recording of membrane currents generated in response to applications of kainate. Series” for “Series”, “All experimental data are presented as mean ± SD estimated from at least four experiments. Significance of the effects was tested with paired t test. Differences were considered significant at p < 0.05.” left out
# [2] = target: non-NMDA glutamate receptors; parameters: method as in Phillips et al., 1997; conditions: neocortical wedges; ref Phillips et al., 1997; cited from earlier work
# [3] = target: voltage-gated sodium channels; parameters: method as in Kuo and Bean, 1994; Lenkowski et al., 2007; conditions: ref Kuo and Bean, 1994; Lenkowski et al., 2007; read-out: Affinity to inactivated states of sodium channels; cited from earlier work
structure (smiles),measurement,setting,value
O=C1NC(=O)C(c2ccccc2)(c2ccccc2)N1 [Phenytoin],% block,CP-AMPARs; 30 μM phenytoin,19%
same,% block,CP-AMPARs; 100 μM phenytoin,38%
same,% inhibition,CP-AMPARs; 50 µM kainate,59 ± 5%
same,% inhibition,CP-AMPARs; 500 µM kainate,48 ± 2%
same,"% block, coapplication with agonist","CP-AMPARs; 300 µM phenytoin, n = 8",60 ± 6%
same,% block,CP-AMPARs; 300 μM phenytoin,57%
same,inhibition of kainate-induced currents,"CP-AMPARs; 500 µM phenytoin, highest concentration tested",58 ± 5%
same,Hill coefficient,"CP-AMPARs; inhibition of CP-AMPARs, Hill equation",0.7 ± 0.2
same,IC50,"CP-AMPARs; kainate-induced currents, Hill equation, −80 mV, read-out: IC50 CP-AMPARs",250 ± 60 µM
same,solubility in the extracellular solution,[1],poor solubility
same,IC50,[2],≥ 100 µM
same,Kd,[3],7 to 21 µM
